Data: patent US10793525B2, “13-cis-RAMBA retinamides that degrade MNKs for treating cancer” (UNIVERSITY OF MARYLAND, BALTIMORE, priority 2014, dated 2020)

How the values were obtained:
[1] = tested on: MDA-MB-231 cells; assay: Wound-healing assay, MDA-MB-231 cell migration; format: cell-based, human; conditions: 5 μM, 24 h
Method: Wound healing assay and matrigel invasion assay were also conducted as described previously using highly metastatic PC-3 cells following treatment with 5 μM of RRs for 24 h.^8a,26
Based on previous studies with closely related compound,^8 the inhibitory effects of Compounds 16, 20 and 22 on cell migration were evaluated, using the human metastatic BC cell line, MDA-MB-231 by wound-healing assay. MDA-MB-231 cells (5×10^5 cells/well) were seeded on Boyden chamber, grown to confluence and scratches made at experimental tome zero. The cells were treated with indicated compounds (5 μM each) for 24 h. Representative photomicrographs of initial and final wounds are shown at 100× magnification. […] At 24 hours after cell monolayers were wounded, control cells had completely filled in the scratched area.

[2] = tested on: MCF-7 human breast cancer cells; assay: MTT cell proliferation assay, MCF-7; format: cell-based; conditions: Homo sapiens, MCF7; MCF-7 cells, MTT, SEM < 10%; read-out: GI50s MCF-7
From the text: (§1) MCF-7, MDA-MB-231, MDA-MB-468 and SKBR-3 human breast cancer cells and LNCaP, PC-3, and CWR22Rv1 human prostate carcinoma cells (American Type Culture Collection, Manassas, Va., USA) were maintained in RPMI 1640 media (Gibco-Life Technologies, Grand Island, N.Y., USA) supplemented with 10% fetal bovine serum and 1% penicillin/streptomycin. Western blotting was done as mentioned previously,^8, 13b using the following antibodies: AR, Bad, Bax, Bcl-2, eIF4E, Mnk1, Mnk-2, N-cadherin, PARP, peIF4E^ser209 purchased from Cell Signaling Technology, Danvers, Mass., USA. Anti-Mnk2 was purchased from Sigma-Aldrich and normal rabbit IgG, cyclin D1 was from Santa Cruz Biotechnology, CA, USA.
(§2) Cells were plated (2500 cells/well) in 96 well plates and treated with or without specified compounds as described previously.^8a, 12b
(§3) The clinically relevant retinoids, ATRA and 4-HPR and the Mnk inhibitor, cercosporamide were used as comparators in the assays.

[3] = tested on: Mnk-1, peIF4E and their downstream targets; assay: Molecular analysis of MDA-MB-231 tumors; format: in vivo; conditions: MDA-MB-231 tumors from treated mice
From the text: To assess their in vivo mode of action, we evaluated the effects of Compounds 20 and 22 on Mnk-1, peIF4E and their downstream targets.

[4] = tested on: fAR, AR-V7, Mnk-1, peIF4E and their downstream targets; assay: Molecular analysis of CWR22Rv1 tumors; format: in vivo; conditions: CWR22Rv1 tumors from treated mice
From the text: To assess their in vivo mode of action, we evaluated the effects of Compound 20 on fAR, AR-V7, Mnk-1, peIF4E and their downstream targets.

[5] = tested on: LNCaP cells; assay: MTT viability of LNCaP cells with AR and/or Mnk1 siRNA knockdown; format: cell-based, human
Method: siRNA (100 nM) was transfected into LNCaP cells using Lipofectamine® 2000 Transfection reagent (Invitrogen) as per manufacturer's protocol. Protein silencing was confirmed by immunoblot analysis. For cell growth assay experiments, transfection complex were removed after 18 h, cells were washed twice with PBS and replaced with growth medium. 24 h later drug was added and harvested after 72 h. For Western blot experiment, transfection complexes were washed off after 18 h and replaced with phenol free media for 24 h. Cells were then treated with 20 μM of VNLG-152 for an additional 24 h and cells were lysed using RIPA lysis buffer.^8b, 27 Luciferase assay was conducted in LNCaP cells using the Dual Luciferase kit (Promega) as described earlier.^8b, 13b
To confirm whether AR and Mnk1 are the major anti-cancer targets of these compounds on LNCaP cells, the percentage of cell survival in LNCaP cells was analyzed by MTT assay following transient transfection with AR siRNA and/or Mnk1 siRNA for 18 hours.

[6] = tested on: LNCaP human prostate carcinoma cells; assay: MTT cell proliferation assay, LNCaP; format: cell-based; conditions: SEM < 10%, read-out: GI50s LNCaP
From the text: as §1, §2, §3
The PC-3 cell line was the least sensitive to all the compounds tested.

[7] = tested on: MDA-MB-231 xenograft tumors; assay: MDA-MB-231 anti-tumor efficacy study (xenograft); format: in vivo
Method: All animal studies were performed according to the guidelines and approval of the Animal Care Committee of the University of Maryland School of Medicine, Baltimore (UMB). Female Athymic Nude mice or male SCID (Charles Rivers Laboratories or UMB facilities) at 4-6 weeks of age were maintained in a pathogen-free environment. MDA-MB-231 (10×10^6) cells were subcutaneously implanted into Athymic Nude mice and CWR22Rv1 (1×10^6) cells into male SCID mice. Mice bearing established tumors (˜100 mm^3) were randomized into treatment groups of 6 and dosed with vehicle (40% β-cyclodexdrin in ddH2O), or compounds 20 and 22 (i.p., formulated in 40% β-cyclodexdrin in ddH2O, once daily, 5 days a week for 28 days).
The National Cancer Institute (NCI) criteria^23 were used to determine tumor growth efficacy of our compounds. Thus, percent test or treatment/control (% T/C), defined as the ratio of the median tumor volume for the treated group versus control group, was calculated as % T/C=[(median tumor volume of treated group at day 28)/(median tumor volume of control group at day 28)]×100.
Indeed, the two compounds were equipotent (FIG. 9A). […] Representative photos of the tumor-bearing mice in the control and the two treatment groups at termination of experiment (day 28) are presented in FIG. 9B.

[8] = MDA-MB-231 xenograft mice, i.p. 20 mg/kg 5×/week over 28 days

CC1=C(/C=C/C(C)=C/C=C/C(C)=C\C(=O)Nc2cccc(F)c2)C(C)(C)CCC1n1ccnc1 (centres unmarked) [Compound 20, (2Z,4E,6E,8E)-9-(3-(1H-imidazol-1-yl)-2,6,6-trimethylcyclohex-1-en-1-yl)-N-(3-fluorophenyl)-3,7-dimethylnona-2,4,6,8-tetraenamide]
migration of MDA-MB-231 cells [1]: significantly inhibited migration
IC50 [2]: 5.69 µM
Mnk1/2, peIF4E, cyclin D1 and Bcl-2 in tumors [3]: depletion
pro-apoptotic proteins Bad and Bax in tumors [3]: up-regulation
fAR, AR-V7, Mnk1/2, peIF4E, cyclin D1 and Bcl-2 in tumors [4]: depletion
pro-apoptotic protein Bad in tumors [4]: up-regulation
cell viability, un-transfected LNCaP cells ([5]; 5 μM, 72 hours, MTT): robust reduction in cell viability
cell viability, LNCaP cells harboring AR or Mnk1 knockdown ([5]; 5 μM, compared to siRNA alone treated counterparts): sensible decrease in cell viability
cell viability, LNCaP cells with double knockdown of AR and Mnk1 ([5]; compared to cells co-treated with Mnk1 and AR siRNA): did not show any significant decrease in cell viability
IC50 [6]: 2.69 µM
body weight [7, 8]: did not lose body weight
signs of toxicity / adverse events [7, 8]: no apparent adverse events
suppression of tumor growth ([7]; MDA-MB-231 xenografts, i.p. 20 mg/kg 5×/week over 28 days): 85.4%
% T/C (treated/control median tumor volume) ([7]; MDA-MB-231 xenografts, i.p. 20 mg/kg 5×/week, day 28): 14.6%
